Where two headings read alike, the source gives them in different places. Where a SMILES comes first, the peptide text is derived from it. Bridges are numbered along the chain shown (N, C = ends). [ ]: non-standard residue; d: D form. The star is where a group is joined. GdDOTA = Gd(III) DOTA conjugate, O=C([O-])CN1CCN(CC(=O)[O-])CCN(CC(=O)*)CCN(CC(=O)[O-])CC1.[Gd+3]; DOTA(Lu) = O=C1CN2CCN3CCN(CC(=O)*)CCN(CC2)CC(=O)[O][Lu]([O]1)[O]C(=O)C3; DOTA = O=C(O)CN1CCN(CC(=O)O)CCN(CC(=O)*)CCN(CC(=O)O)CC1; Gly(cPent) = N[C@H](C(=O)O)C1CCCC1; Hyp = O=C(O)[C@@H]1C[C@@H](O)CN1; Gly(cBu) = N[C@H](C(=O)O)C1CCC1; Pentanoyl(4-Me) = CC(C)CCC(=O)*; Cha = N[C@@H](CC1CCCCC1)C(=O)O; Cit = NC(=O)NCCC[C@H](N)C(=O)O; Nle = CCCC[C@H](N)C(=O)O; Api = NC1(C(=O)O)CCNCC1; Nva = CCC[C@H](N)C(=O)O; Hexanoyl = CCCCCC(=O)*; Pentanoyl = CCCCC(=O)*
Assays:
[1] = target: T1, uPAR-expressing HEC-265 human endometrial adenocarcinoma cells (Homo sapiens, UniProt Q03405); test: Competitive FACS binding assay; settings: pIC50 category of FACS binding
T1 construct: Cell surface uPAR-expressing HEC-265 human endometrial adenocarcinoma cells; host or cells: HEC-265
T1 sequence (Q03405 23-335): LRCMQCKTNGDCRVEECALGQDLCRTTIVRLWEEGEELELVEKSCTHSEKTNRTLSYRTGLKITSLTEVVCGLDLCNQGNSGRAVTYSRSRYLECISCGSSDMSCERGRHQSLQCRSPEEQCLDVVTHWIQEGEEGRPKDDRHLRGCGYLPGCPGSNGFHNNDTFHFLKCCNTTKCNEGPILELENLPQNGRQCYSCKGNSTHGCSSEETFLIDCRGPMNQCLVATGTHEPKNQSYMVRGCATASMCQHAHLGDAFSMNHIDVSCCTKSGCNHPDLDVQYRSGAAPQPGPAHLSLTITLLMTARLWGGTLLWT
Method in brief: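 HEC-265 cells incubated 1 h at 4 °C with 10 nM biotinylated uPAR peptide tracer plus increasing test compound, then stained with APC-streptavidin on ice. Median APC fluorescence by flow cytometry; 4PL fit gives pIC50.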

human uPAR (uPAR-Fc) = target: T2, human uPAR (uPAR-Fc) (Homo sapiens, UniProt Q03405); test: Surface plasmon resonance (SPR) assay, single cycle kinetics; format: binding; settings: pKD category for uPAR SPR activity assay, uPAR-Fc on Protein A-Chip, 25°C; for Kd: read-out: pKD CAT (converted)
T2 construct: comprising amino acids Leu23-Arg303 according to UniProt entry Q03405.1; purchased R&D Systems 10378-UK-100
T2 sequence (Q03405 23-303): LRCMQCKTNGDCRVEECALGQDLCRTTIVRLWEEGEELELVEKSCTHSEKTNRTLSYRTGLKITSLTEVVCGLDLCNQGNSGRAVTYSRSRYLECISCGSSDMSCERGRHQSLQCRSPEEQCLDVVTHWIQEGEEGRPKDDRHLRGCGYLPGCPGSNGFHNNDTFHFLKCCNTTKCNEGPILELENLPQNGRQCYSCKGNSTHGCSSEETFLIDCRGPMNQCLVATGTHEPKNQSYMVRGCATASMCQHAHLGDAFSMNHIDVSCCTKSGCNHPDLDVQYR
Method in brief: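 uPAR-Fc (Leu23-Arg303 extracellular domains, human IgG1 Fc) captured on Protein A chip to ~2000 RU; single-cycle kinetics at 25°C in HEPES running buffer pH 7.4 with 0.1% DMSO. KD from double-referenced sensorgrams fitted to 1:1 Langmuir model, reported as pKD.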

[2] = Plasma stability assay (mouse plasma); format: in vitro ADME; settings: 37°C, LC-MS quantification; for remaining at 6 h, 9.8 µM: mouse plasma (sodium citrate 3.7%), read-out: % intact compound remaining after 6h incubation Mouse plasma; for % intact compound remaining after 6h incubation Mouse plasma: mouse plasma (sodium citrate)
Procedure: In order to determine the stability of selected compounds of the invention in human and mouse plasma, a plasma stability assay was carried out. Such plasma stability assay measures degradation of compounds of the present invention in blood plasma. This is an important characteristic of a compound as compounds, with the exception of pro-drugs, which rapidly degrade in plasma, generally show poor in vivo efficacy. […] The stability is sufficient for the diagnostic, therapeutic and theragnostic use of these compounds according to the present invention.
The plasma stability samples were prepared by spiking 50 µl plasma aliquots (all sodium citrate 3.7%) with 1 µl of a 0.5 mM compound stock solution in DMSO. After vortexing the samples were incubated in a Thermomixer at 37°C for 0 and 6 hours. After incubation the samples were stored on ice until further treatment. All samples were prepared in duplicates.
A suitable internal standard was added to each sample (1 µl of a 0.5 mM stock solution in DMSO). Protein precipitation was performed using two different methods depending on the compound conditions as indicated in Table 13. • A) 250 µl of acetonitrile containing 1% trifluoroacetic acid was added. After incubation at room temperature for 30 min the precipitate was separated by centrifugation and 150 µl of the supernatant was diluted with 150 µl of 1% aqueous formic acid. • B) 150 µl of a zinc sulphate precipitation agent containing 78% 0.1 M zinc sulphate and 22% acetonitrile was added. After incubation at room temperature for 30 min the precipitate was separated by centrifugation. To 100 µl of the supernatant 10 µl of 1% formic acid was added followed by further incubation at 60°C for 10 min to complete the formation of the zinc chelate, if the compound contains a free DOTA moiety.
The determination of the analyte in the clean sample solutions was performed on an Agilent 1290 UHPLC system coupled to an Agilent 6530 Q-TOF mass spectrometer. The chromatographic separation was carried out on a Phenomenex BioZen XB-C18 HPLC column (50 x 2 mm, 1.7 µm particle size).
Two different elution gradients were applied using a mixture of 0.1% formic acid in water as eluent A and acetonitrile as eluent B: • A) 2% B to 41% in 7 min, 800 µl/min, 40°C. • B) 5% B to 50% B in 6 min, 800 µL/min, 40°C.
Mass spectrometric detection was performed in positive ion ESI mode by scanning the mass range from m/z 50 to 3000 with a sampling rate of 2 / sec.
From the mass spectrometric raw data the ion currents for the double or triple charged monoisotopic signal was extracted for both, the compound and the internal standard.
Quantitation was performed by external matrix calibration with internal standard using the integrated analyte signals.
Additionally, recovery was determined by spiking a pure plasma sample that only contained the internal standard after treatment with a certain amount of the compound.
Carry-over was evaluated by analysis of a blank sample (20% acetonitrile) after the highest calibration sample.
The result is stated as "% intact compound remaining after 6 h incubation" and means that from the amount of material at the start of the experiment the stated percentage is detected as unchanged material at the end of the experiment by LC-MS quantification. Since all compounds are more than 50% intact after 6 h they are considered as stable enough for diagnostic and therapeutic applications. Table 13: Results of the plasma stability assay

Row | Compound | IC50 [1] | Kd (human uPAR (uPAR-Fc); single cycle kinetics) | Kd (human uPAR (uPAR-Fc)) | other results
1 | CC[C@H](C)[C@@H]1NC(=O)[C@@H](C)NC(=O)[C@@H]2CCCN2C(=O)[C@H](Cc2ccccc2)NC(=O)[C@H](Cc2ccc(O)cc2)NC(=O)[C@H](CCCCNC(=O)CN2CCN(CC(=O)O)CCN(CC(=O)O)CCN(CC(=O)O)CC2)NC(=O)[C@H](CCCNC(=N)N)NC(=O)[C@@H](NC(=O)CCC(C)C)CSSC[C@@H](C(N)=O)NC(=O)[C@H](CC(C)C)NC1=O [UPAR-176, iHex-[Cys-Arg-Lys(DOTA)-Tyr-Phe-Pro-ala-Ile-Leu-Cys]-NH2] ({Pentanoyl(4-Me)}-CRK(DOTA)YFP[dA]ILC-NH2; disulfide 1-10) | ≤ 10 nM |  | < 1.58 nM | remaining at 6 h, 9.8 µM [2]: 57%
2 | iHex-[Cys-Arg-Gln-Tyr-Phe-Pro-Apc(GdDOTA)-Ile-Leu-Cys]-NH2 ({Pentanoyl(4-Me)}-CRQYFP[Api](GdDOTA)ILC-NH2; disulfide 1-10 (inferred); not fully specified) [UPAR-457] |  |  |  | pIC50 CAT [1]: A (pIC50 values ≥8.0); % intact compound remaining after 6h incubation Mouse plasma [2]: 64%
3 | iHex-[Cys-Lys(LuDOTA)-Gln-Tyr-Phe-Pro-ala-Ile-Leu-Cys]-NH2 ({Pentanoyl(4-Me)}-CK(DOTA(Lu))QYFP[dA]ILC-NH2; disulfide 1-10 (inferred); not fully specified) [UPAR-408] |  |  |  | pIC50 CAT [1]: A (pIC50 values ≥8.0); % intact compound remaining after 6h incubation Mouse plasma [2]: 75%
4 | CCCC[C@@H]1NC(=O)[C@H](CCCNC(=N)N)NC(=O)[C@@H](NC(=O)[C@H](CC(C)C)NC(=O)[C@H](CC(=O)O)NC(C)=O)CSSC[C@@H](C(N)=O)NC(=O)[C@H](CC(C)C)NC(=O)[C@H]([C@@H](C)CC)NC(=O)[C@@H](C)NC(=O)[C@@H]2CCCN2C(=O)[C@H](Cc2ccccc2)NC(=O)[C@H](Cc2ccc(O)cc2)NC1=O [UPAR-406, Ac-Asp-Leu-[Cys-Arg-Nle-Tyr-Phe-Pro-ala-Ile-Leu-Cys]-NH2] (Ac-DLCR[Nle]YFP[dA]ILC-NH2; disulfide 3-12) | ≤ 10 nM | < 1.58 nM |  | 
5 | Pent-[Cys-Cit-Lys(InDOTA-PEG12)-Tyr-Phe-Pro-Hyp-Ile-Nva-Cys]-NH2 (Pentanoyl-C[Cit]KYFP[Hyp]I[Nva]C-NH2; disulfide 1-10; not fully specified (residue 3); printed as Pent-[Cys-Cit-Lys(InDOTA-PEG12)-Tyr-Phe-Pro-Hyp-Ile-Nva-Cys]-NH2; also: In(III) complexed by DOTA) [UPAR-404] |  |  |  | pIC50 CAT [1]: A (pIC50 values ≥8.0); pKD CAT (human uPAR (uPAR-Fc); single cycle kinetics): A (pKD values ≥ 8.8)
6 | CCCCC(=O)N[C@H]1CSSC[C@@H](C(N)=O)NC(=O)[C@H](CCC)NC(=O)[C@H]([C@@H](C)CC)NC(=O)[C@@H]2C[C@@H](O)CN2C(=O)[C@H](CC2CCCCC2)NC(=O)[C@H](Cc2ccccc2)NC(=O)[C@H](Cc2ccc(O)cc2)NC(=O)[C@H](CCC(N)=O)NC(=O)[C@H](CCCNC(=N)N)NC1=O [UPAR-266, Pent-[Cys-Arg-Gln-Tyr-Phe-Cha-Hyp-Ile-Nva-Cys]-NH2] (Pentanoyl-CRQYF[Cha][Hyp]I[Nva]C-NH2; disulfide 1-10) | ≤ 10 nM |  | < 1.58 nM | 

The next lines start with results.

Row | IC50 [1] | Kd (human uPAR (uPAR-Fc); single cycle kinetics) | Kd (human uPAR (uPAR-Fc)) | Compound | other results
7 | ≤ 10 nM | < 1.58 nM |  | CCCCCC(=O)N[C@@H](CC(=O)O)C(=O)N[C@@H](CC(C)C)C(=O)N[C@H]1CSSC[C@@H](C(N)=O)NC(=O)[C@H](CC(C)C)NC(=O)[C@H]([C@@H](C)CC)NC(=O)[C@H](CCCCNC(=O)CN2CCN(CC(=O)O)CCN(CC(=O)O)CCN(CC(=O)O)CC2)NC(=O)[C@@H]2CCCN2C(=O)[C@H](Cc2ccccc2)NC(=O)[C@H](Cc2ccc(O)cc2)NC(=O)[C@H](CCSC)NC(=O)[C@H](CCCNC(=N)N)NC1=O [UPAR-351, Hex-Asp-Leu-[Cys-Arg-Met-Tyr-Phe-Pro-Lys(DOTA)-Ile-Leu-Cys]-NH2] (Hexanoyl-DLCRMYFPK(DOTA)ILC-NH2; disulfide 3-12) | remaining at 6 h, 9.8 µM [2]: > 95%
8 | ≤ 10 nM | 1.58 to 10 nM |  | CC(C)CCC(=O)N[C@H]1CSSC[C@@H](C(N)=O)NC(=O)[C@H](CC(C)C)NC(=O)[C@H](C2CCC2)NC(=O)[C@@H](C)NC(=O)[C@@H]2CCCN2C(=O)[C@H](Cc2ccccc2)NC(=O)[C@H](Cc2ccc(O)cc2)NC(=O)[C@H](CCC(N)=O)NC(=O)[C@H](CCCNC(N)=O)NC1=O [UPAR-453, iHex-[Cys-Cit-Gln-Tyr-Phe-Pro-ala-Cbg-Leu-Cys]-NH2] ({Pentanoyl(4-Me)}-C[Cit]QYFP[dA][Gly(cBu)]LC-NH2; disulfide 1-10) | 
9 | ≤ 10 nM |  | 1.58 to 10 nM | CCCCC(=O)N[C@H]1CSSC[C@@H](C(N)=O)NC(=O)[C@H](CCC)NC(=O)[C@H]([C@@H](C)CC)NC(=O)[C@@H]2C[C@@H](O)CN2C(=O)[C@@H]2CCCN2C(=O)[C@H](Cc2c[nH]c3ccccc23)NC(=O)[C@H](Cc2ccc(O)cc2)NC(=O)[C@H](CCC(N)=O)NC(=O)[C@H](CCCNC(=N)N)NC1=O [UPAR-308, Pent-[Cys-Arg-Gln-Tyr-Trp-Pro-Hyp-Ile-Nva-Cys]-NH2] (Pentanoyl-CRQYWP[Hyp]I[Nva]C-NH2; disulfide 1-10) | 
10 | ≤ 10 nM |  | < 1.58 nM | CC[C@H](C)[C@@H]1NC(=O)[C@@H](C)NC(=O)[C@@H]2CCCN2C(=O)[C@H](Cc2ccccc2)NC(=O)[C@H](Cc2ccc(O)cc2)NC(=O)[C@H](CCC(=O)O)NC(=O)[C@H](CCCNC(N)=O)NC(=O)[C@@H](NC(=O)CCC(C)C)CSSC[C@@H](C(N)=O)NC(=O)[C@H](CC(C)C)NC1=O [UPAR-255, iHex-[Cys-Cit-Glu-Tyr-Phe-Pro-ala-Ile-Leu-Cys]-NH2] ({Pentanoyl(4-Me)}-C[Cit]EYFP[dA]ILC-NH2; disulfide 1-10) | 
11 | ≤ 10 nM |  | < 1.58 nM | CCCCCC(=O)N[C@@H](CC(=O)O)C(=O)N[C@@H](CC(C)C)C(=O)N[C@H]1CSSC[C@@H](C(N)=O)NC(=O)[C@H](CC(C)C)NC(=O)[C@H]([C@@H](C)CC)NC(=O)[C@H](C)NC(=O)[C@@H]2CCCN2C(=O)[C@H](Cc2ccccc2)NC(=O)[C@H](Cc2ccc(O)cc2)NC(=O)[C@H](CCSC)NC(=O)[C@H](CCCCNC(=O)CN2CCN(CC(=O)O)CCN(CC(=O)O)CCN(CC(=O)O)CC2)NC1=O [UPAR-235, Hex-Asp-Leu-[Cys-Lys(DOTA)-Met-Tyr-Phe-Pro-Ala-Ile-Leu-Cys]-NH2] (Hexanoyl-DLCK(DOTA)MYFPAILC-NH2; disulfide 3-12) | 
12 | ≤ 10 nM | 1.58 to 10 nM |  | CC(C)CCC(=O)N[C@H]1CSSC[C@@H](C(N)=O)NC(=O)[C@H](CC(C)C)NC(=O)[C@H](C2CCCC2)NC(=O)[C@@H](C)NC(=O)[C@@H]2CCCN2C(=O)[C@H](Cc2ccccc2)NC(=O)[C@H](Cc2ccc(O)cc2)NC(=O)[C@H](CCC(N)=O)NC(=O)[C@H](CCCNC(N)=O)NC1=O [UPAR-349, iHex-[Cys-Cit-Gln-Tyr-Phe-Pro-ala-Cpg-Leu-Cys]-NH2] ({Pentanoyl(4-Me)}-C[Cit]QYFP[dA][Gly(cPent)]LC-NH2; disulfide 1-10) | 

Reference: patent EP4610269A1, “UROKINASE PLASMINOGEN ACTIVATOR SURFACE RECEPTOR (UPAR) LIGANDS FOR DIAGNOSTIC OR THERAPEUTIC USE” (3B Pharmaceuticals GmbH, priority 2024, dated 2025)
